Experimental findings from ChEMBL document CHEMBL1201862, “PubChem BioAssay data set” (2004) are described below.

For test [1], the target named is Multidrug resistance protein CDR2 (Candida albicans (strain SC5314 / ATCC MYA-2876) (Yeast), UniProt P78595). Put plainly: CaCDR2 efflux pump inhibitors in yeast, dose response, S. cerevisiae AD1-8u, singleplex, Cherry Pick1 hits (AID 588604). It counts as functional.
For test [2], the target named is T1, Replicative DNA helicase DnaB (Mycobacterium tuberculosis, UniProt P9WMR3).
T1 sequence (P9WMR3 whole entry): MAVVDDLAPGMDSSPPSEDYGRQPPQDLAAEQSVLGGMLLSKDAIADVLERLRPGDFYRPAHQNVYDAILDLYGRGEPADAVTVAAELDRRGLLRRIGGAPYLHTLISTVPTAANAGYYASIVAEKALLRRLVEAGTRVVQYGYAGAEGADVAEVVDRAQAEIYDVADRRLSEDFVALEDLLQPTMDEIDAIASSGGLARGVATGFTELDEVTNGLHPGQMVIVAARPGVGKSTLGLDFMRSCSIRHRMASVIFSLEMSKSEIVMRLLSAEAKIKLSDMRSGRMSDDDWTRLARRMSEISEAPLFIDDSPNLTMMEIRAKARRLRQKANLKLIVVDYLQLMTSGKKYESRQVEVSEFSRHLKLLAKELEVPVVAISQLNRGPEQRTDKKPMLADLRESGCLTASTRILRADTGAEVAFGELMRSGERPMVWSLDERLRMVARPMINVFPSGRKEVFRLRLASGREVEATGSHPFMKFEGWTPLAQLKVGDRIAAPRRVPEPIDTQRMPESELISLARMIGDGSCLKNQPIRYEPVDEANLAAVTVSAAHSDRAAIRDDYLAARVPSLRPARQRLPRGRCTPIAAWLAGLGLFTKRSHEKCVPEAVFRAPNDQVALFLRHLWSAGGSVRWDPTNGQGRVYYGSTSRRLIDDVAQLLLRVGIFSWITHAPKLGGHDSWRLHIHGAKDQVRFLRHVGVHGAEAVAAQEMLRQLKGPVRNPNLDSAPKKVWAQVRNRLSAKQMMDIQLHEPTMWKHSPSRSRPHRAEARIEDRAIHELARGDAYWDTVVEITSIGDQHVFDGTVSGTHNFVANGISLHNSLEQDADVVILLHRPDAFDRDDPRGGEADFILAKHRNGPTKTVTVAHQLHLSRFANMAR
Put plainly: DnaB intein splicing inhibitors, dose response, biochemical, cell-free fluorescence (AID 449749). It counts as functional.

Another test concerns the target Beta-galactosidase (Escherichia coli, UniProt Q8VNN2). Put plainly: beta-galactosidase enzyme inhibitors and activators, dose response, artefact control for CCR6 antagonist project, biochemical, E. coli enzyme, set 3 (AID 504712). Type of test: functional.
Test [3] has as its target T2, Mitochondrial peptide methionine sulfoxide reductase (Bos taurus, UniProt P54149).
T2 sequence (P54149 whole entry): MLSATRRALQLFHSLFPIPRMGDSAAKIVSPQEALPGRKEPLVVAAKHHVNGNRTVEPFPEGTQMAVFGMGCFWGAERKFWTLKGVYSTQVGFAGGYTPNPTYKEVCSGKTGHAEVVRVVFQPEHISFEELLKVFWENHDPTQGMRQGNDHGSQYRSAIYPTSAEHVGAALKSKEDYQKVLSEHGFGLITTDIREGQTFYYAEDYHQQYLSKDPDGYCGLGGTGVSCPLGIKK
Put plainly: Absorbance-based biochemical high throughput dose response assay for activators of Methionine sulfoxide reductase A (MsrA). It counts as functional.

Test [4] deals with T3, Heat shock factor protein 1 (Mus musculus, UniProt P38532).
T3 sequence (P38532 whole entry): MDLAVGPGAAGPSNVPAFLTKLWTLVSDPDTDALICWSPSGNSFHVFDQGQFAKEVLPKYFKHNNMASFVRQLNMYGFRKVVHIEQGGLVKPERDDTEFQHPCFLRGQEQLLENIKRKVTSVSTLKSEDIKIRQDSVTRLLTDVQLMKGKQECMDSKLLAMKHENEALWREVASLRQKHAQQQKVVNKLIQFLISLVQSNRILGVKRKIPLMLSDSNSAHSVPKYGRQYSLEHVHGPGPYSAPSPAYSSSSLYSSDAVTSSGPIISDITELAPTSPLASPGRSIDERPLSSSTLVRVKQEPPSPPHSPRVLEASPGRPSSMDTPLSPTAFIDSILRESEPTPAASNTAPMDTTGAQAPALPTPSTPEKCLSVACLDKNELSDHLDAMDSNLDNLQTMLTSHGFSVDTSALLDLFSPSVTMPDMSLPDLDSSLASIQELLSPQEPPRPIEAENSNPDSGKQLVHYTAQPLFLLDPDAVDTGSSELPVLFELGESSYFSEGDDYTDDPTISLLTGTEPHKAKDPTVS
Put plainly: inhibition of MG132-induced HSE-luciferase signal, confirmation, cell-based, NIH3T3, luminescence, dose retest (AID 2382).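 Note: NIH3T3 fibroblasts with HSF1-driven luciferase reporter stressed by proteasome inhibitor MG132; luminescence from HSF1-driven luciferase expression after 8 hours of MG132 stress.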 Type of test: functional.

The target of another test is Genome polyprotein (dengue virus type 2, UniProt P29990). Put plainly: Dengue-2 NS5 methyltransferase inhibitors, primary screen, biochemical, confirmation dose response (AID 588689). Type of test: functional.
Test [5] addresses C-C chemokine receptor type 6 (Homo sapiens, UniProt P51684). Put plainly: CCR6 receptor antagonists, dose response, cell-based, luminescent beta-arrestin readout (AID 504728). Type of test: functional.
Another test deals with T4, Streptokinase A (Streptococcus pyogenes serotype M1, UniProt P10520).
T4 sequence (P10520 whole entry): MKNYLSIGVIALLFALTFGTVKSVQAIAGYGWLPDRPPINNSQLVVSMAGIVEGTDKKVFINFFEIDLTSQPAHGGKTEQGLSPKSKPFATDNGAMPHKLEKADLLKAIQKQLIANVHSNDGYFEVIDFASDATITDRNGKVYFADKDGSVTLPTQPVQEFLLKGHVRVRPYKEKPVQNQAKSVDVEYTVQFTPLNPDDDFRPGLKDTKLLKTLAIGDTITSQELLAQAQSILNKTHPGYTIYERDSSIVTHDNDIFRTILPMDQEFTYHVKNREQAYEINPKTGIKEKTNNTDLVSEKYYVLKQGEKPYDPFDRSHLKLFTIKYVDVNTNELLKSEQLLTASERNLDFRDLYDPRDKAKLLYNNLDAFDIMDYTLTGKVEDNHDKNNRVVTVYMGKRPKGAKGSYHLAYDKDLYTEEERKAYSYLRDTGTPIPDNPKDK
Put plainly: S. pyogenes streptokinase expression inhibitors, potency, dose response, plasminogen activation absorbance, OD405 (AID 1914).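 Note: secreted streptokinase activity via plasminogen activation per viability signal from cell pellet.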 Type of test: functional, Streptococcus pyogenes M1 GAS.

The next test concerns the target T5, Protein RecA (Mycobacterium tuberculosis, UniProt P9WHJ3).
T5 sequence (P9WHJ3 whole entry): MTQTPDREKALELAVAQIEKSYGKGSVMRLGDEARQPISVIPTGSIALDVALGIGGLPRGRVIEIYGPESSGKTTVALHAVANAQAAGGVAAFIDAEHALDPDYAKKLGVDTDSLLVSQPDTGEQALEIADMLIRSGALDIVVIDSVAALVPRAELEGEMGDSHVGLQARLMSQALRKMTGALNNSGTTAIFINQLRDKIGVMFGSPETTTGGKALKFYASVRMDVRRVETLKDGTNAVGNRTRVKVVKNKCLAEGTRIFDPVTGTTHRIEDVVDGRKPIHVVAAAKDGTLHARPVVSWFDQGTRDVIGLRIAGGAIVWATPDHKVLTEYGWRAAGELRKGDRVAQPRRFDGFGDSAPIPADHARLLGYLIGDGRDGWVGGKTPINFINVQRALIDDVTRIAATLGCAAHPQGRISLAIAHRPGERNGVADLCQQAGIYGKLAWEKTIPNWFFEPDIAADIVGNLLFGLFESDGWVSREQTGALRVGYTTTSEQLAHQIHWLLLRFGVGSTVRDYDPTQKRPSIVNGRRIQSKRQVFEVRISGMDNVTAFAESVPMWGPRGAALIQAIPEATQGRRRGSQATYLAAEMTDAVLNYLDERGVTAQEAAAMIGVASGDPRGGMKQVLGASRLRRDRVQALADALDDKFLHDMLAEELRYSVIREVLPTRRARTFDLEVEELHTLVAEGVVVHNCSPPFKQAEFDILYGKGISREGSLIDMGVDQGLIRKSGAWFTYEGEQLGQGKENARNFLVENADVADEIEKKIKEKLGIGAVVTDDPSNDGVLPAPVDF
Put plainly: Fluorescence Cell-Free Homogeneous Dose Retest to Identify Inhibitors of RecA-Intein Splicing Activity. [Related pubchem assays (depositor defined):AID2097, AID2223, AID489010, AID492950]. It counts as functional.

The target in test [6] is Induced myeloid leukemia cell differentiation protein Mcl-1 (Homo sapiens, UniProt Q07820). It counts as functional.

SMILES strings stand for the structures. Calls of active or inactive are those of the source.

Chain of Induced myeloid leukemia cell differentiation protein Mcl-1 (Q07820 whole entry): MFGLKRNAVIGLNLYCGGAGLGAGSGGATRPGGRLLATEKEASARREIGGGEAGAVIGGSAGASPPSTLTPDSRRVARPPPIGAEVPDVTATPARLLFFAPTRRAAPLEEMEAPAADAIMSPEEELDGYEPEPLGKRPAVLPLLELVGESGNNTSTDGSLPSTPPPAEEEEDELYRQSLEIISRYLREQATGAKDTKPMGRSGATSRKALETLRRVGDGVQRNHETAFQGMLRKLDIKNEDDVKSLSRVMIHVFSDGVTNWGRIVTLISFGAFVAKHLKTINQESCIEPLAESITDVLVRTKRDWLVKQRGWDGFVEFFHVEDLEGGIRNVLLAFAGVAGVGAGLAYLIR
Chain of Beta-galactosidase (Q8VNN2 whole entry): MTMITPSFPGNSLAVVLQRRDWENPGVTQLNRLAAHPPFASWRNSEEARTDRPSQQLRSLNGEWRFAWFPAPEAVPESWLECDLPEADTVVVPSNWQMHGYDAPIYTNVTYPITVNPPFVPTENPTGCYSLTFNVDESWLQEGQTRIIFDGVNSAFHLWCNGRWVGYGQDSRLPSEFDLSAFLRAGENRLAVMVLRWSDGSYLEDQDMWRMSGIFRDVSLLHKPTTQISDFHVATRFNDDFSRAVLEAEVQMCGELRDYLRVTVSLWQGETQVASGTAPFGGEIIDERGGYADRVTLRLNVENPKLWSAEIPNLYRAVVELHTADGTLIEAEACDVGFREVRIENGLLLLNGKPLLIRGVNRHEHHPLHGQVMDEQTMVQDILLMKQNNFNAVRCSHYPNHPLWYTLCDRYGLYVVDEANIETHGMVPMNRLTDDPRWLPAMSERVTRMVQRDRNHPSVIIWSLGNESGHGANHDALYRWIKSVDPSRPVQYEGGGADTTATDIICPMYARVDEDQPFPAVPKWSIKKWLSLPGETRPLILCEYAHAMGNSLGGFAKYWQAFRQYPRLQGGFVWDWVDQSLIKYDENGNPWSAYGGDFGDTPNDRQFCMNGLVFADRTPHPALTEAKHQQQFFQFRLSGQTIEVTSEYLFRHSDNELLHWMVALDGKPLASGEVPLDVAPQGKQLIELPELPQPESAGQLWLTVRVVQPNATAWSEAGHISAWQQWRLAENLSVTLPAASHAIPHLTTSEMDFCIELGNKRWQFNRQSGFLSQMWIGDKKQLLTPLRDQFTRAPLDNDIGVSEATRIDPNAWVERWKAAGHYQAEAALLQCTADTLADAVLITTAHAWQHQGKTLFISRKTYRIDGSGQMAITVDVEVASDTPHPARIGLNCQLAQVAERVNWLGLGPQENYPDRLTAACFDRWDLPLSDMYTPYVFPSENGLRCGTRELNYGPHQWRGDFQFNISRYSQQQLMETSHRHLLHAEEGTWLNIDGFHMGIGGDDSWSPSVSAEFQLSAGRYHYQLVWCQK
Chain of C-C chemokine receptor type 6 (P51684 whole entry): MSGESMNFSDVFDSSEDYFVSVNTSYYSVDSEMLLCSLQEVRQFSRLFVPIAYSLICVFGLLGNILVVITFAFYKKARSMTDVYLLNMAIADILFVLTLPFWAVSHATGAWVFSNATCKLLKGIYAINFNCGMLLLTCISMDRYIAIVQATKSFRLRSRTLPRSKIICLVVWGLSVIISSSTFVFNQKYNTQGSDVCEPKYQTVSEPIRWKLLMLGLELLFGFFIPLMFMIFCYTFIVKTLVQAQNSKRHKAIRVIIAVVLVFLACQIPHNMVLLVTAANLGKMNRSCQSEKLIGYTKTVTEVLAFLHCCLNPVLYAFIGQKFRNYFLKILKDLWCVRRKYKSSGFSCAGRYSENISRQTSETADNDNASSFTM
Chain of Multidrug resistance protein CDR2 (P78595 whole entry): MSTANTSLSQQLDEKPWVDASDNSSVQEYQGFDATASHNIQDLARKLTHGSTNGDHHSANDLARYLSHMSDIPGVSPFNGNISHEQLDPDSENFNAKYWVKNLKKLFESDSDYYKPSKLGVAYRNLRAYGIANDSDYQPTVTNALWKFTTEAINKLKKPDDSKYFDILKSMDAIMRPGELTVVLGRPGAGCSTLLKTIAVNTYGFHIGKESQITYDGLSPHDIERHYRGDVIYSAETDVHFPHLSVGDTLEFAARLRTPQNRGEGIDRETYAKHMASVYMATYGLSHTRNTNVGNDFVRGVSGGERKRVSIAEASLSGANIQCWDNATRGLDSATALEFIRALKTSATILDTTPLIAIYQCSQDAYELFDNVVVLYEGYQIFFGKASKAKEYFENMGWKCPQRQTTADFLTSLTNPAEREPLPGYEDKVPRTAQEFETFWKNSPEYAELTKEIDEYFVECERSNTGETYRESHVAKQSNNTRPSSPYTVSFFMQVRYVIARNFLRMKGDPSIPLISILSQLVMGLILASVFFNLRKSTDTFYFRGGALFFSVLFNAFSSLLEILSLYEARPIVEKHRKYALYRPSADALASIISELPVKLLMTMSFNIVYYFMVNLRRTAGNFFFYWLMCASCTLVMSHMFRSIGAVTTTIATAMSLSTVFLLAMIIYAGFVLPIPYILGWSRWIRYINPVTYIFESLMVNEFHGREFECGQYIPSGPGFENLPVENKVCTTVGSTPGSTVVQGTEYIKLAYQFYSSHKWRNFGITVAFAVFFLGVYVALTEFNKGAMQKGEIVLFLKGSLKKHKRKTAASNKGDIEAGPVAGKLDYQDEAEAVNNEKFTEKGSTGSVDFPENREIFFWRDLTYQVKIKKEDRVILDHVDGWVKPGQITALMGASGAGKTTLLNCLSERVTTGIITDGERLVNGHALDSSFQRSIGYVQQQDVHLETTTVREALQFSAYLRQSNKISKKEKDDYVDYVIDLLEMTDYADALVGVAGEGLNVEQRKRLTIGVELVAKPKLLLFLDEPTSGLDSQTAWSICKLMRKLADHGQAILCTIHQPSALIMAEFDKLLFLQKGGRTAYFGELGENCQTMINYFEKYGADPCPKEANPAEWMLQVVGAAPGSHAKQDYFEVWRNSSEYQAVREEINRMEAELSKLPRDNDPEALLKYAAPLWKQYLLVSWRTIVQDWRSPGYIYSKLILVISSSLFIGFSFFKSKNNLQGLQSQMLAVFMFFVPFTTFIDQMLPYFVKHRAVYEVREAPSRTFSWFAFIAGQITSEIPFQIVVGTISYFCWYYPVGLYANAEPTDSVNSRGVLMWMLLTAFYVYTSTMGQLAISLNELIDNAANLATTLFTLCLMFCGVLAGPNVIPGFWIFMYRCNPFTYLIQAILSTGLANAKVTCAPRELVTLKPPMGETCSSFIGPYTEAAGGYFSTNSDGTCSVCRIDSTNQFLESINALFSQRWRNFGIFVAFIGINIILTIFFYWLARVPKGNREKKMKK
Chain of Genome polyprotein (P29990 2492-3391 limits assumed): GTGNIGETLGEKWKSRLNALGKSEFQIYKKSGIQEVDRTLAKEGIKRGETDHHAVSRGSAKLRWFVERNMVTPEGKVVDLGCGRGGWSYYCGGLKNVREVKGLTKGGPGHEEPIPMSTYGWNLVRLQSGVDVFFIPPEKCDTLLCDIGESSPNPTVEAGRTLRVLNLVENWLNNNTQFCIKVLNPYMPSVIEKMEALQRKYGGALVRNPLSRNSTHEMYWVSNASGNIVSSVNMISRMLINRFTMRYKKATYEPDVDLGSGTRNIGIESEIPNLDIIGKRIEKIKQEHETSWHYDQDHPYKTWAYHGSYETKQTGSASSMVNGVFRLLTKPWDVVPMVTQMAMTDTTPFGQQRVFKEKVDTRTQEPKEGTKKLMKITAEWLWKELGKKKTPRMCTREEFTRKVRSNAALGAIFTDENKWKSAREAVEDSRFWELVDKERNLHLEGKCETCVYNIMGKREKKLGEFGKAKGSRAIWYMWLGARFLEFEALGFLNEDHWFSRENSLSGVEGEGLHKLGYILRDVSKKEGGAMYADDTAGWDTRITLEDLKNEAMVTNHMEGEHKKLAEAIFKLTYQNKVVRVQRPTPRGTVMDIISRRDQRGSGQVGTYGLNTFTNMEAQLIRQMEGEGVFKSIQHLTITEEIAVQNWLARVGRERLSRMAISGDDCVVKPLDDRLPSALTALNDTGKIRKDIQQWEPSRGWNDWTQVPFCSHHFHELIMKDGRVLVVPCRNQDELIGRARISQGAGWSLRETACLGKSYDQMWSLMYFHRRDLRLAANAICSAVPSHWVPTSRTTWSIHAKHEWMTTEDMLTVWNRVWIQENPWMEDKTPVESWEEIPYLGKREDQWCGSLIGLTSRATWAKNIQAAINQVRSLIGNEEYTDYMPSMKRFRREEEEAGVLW

In general, EC50 refers to the concentration giving half of the maximal effect. The AC50 is the midpoint of the concentration-response curve, whichever way the signal moves. In general, IC50 refers to the concentration that inhibits the measured activity by half. `O=C1C(Cl)=C(Nc2ccc3cn[nH]c3c2)C(=O)c2ccccc21`: the EC50 in test [1] is 40.6 µM (active); in test [3], > 104 µM (inactive); in [4], 5.42 µM (active); at Streptokinase A, 6.22 µM (active); on Protein RecA it was 0.955 µM (active). Also, the concentration at half-maximal activity (AC50) in test [2] is 1.65 µM (active). The IC50 at Beta-galactosidase was > 66.6 µM (inactive); on Genome polyprotein, 18.7 µM (active); in [5], > 66.6 µM (inactive); in [6], 6.25 µM (active).
